Data published in PMC5399295 (Nature Communications, 2017).
Like-named read-outs stand apart in the source and are kept apart here. Each block holds one molecule with its values, some of them ahead of it.

Assays:
β2-adaptin [1] = biological target: T1, β2-adaptin (Homo sapiens, UniProt P63010); experiment: differential scanning fluorimetry (CPM dye) on purified β2-appendage, dose-dependent Tm shift; supported by GST-β2-adaptin([…]) pull-down and cell BRET (IC50 […] for β-arrestin1, from cell BRET); format: cell-based
T1 construct: gene AP2B1; residues 700-937 StrepTagII used only for DSF

β2-adaptin [2] = biological target: T1, β2-adaptin; experiment: cell-based; parameters: species or system HEK293T; details: β-arrestin1/β2-adaptin interaction, V2R stimulated; read-out: IC50 AP2/βarr1 (V2R)
Protocol: To assess the potency of these compounds, concentration-response curves of the inhibitory actions of the compounds on the V2R-stimulated β-arrestin/β2-adaptin interaction were carried out. In addition to compounds #33 and #42, compound #1 was included in the analysis as a negative control (Fig. 2a–c). […] First, the reversible mode of action of Barbadin was assessed by incubating cells with Barbadin for 30 min and monitoring BRET between β2-adaptin and β-arrestin1 following, or not, extensive wash before AVP stimulation. […] HEK293T cells stably expressing β2-adaptin-YFP (ref. [24]) were cultured as aforementioned with the addition of G418 in the supplemented DMEM. Forty-eight hours before the experiments, 10 μg of total DNA (adjusted with salmon sperm DNA) was used to transfect 6 × 10^6 cells per ml in 10-cm dishes using 25-kDa linear PEI as a transfecting agent (3:1 PEI/DNA ratio). […] On the day of the BRET experiment, cells were washed, detached and resuspended in Tyrode's buffer. Cells (10^5 cells per well) were distributed in 96-wells microplates. DMSO or compounds selected from the virtual screening were preincubated for 30 min at indicated concentrations, always keeping DMSO at 1% final concentration in each well. Cells were treated with AVP or ISO at the indicated times and concentrations, at room temperature. Coelenterazine H (for YFP BRET acceptor) or coelenterazine 400 A (for GFP10 BRET acceptor) was added at a final concentration of 2.5 μM five minutes before measurements. Readings were collected with a Mithras LB 940 multidetector plate reader (Berthold Technologies) to integrate signals detected in the 485/20 nm and 530/25 nm windows for the Renilla luciferase (RlucII) and YFP light emissions, respectively, and in the 400/70 nm and 515/25 nm windows for the RlucII and GFP10 light emissions, respectively. The BRET signal was determined by calculating the ratio of the light intensity emitted by the YFP or GFP10 over the light intensity emitted by the RlucII. Net BR

β2-adaptin [3] = experiment: cells; parameters: species or system HEK293T; ebBRET receptor-RlucII with rGFP-CAAX, inhibition of agonist-induced receptor loss from plasma membrane; details: Homo sapiens, HEK-293T, 0.5 h; β2AR endocytosis, ISO 10 uM 30 min; read-out: IC50 membrane localization β2AR
From the text: Because the interaction between β-arrestins and β2-adaptin is important for initiating receptor internalization, we next sought to determine whether Barbadin could be used as a pharmacological tool, to block the ligand-promoted endocytosis of GPCRs. For this purpose, we used enhanced bystander BRET (ebBRET) trafficking sensors allowing to monitor both receptor disappearance from the plasma membrane (rGFP-CAAX sensor, Fig. 4a) and their accumulation in early endosomes (rGFP-FYVE, Fig. 4e) in spectrometric and microscopy-based assays. […] The effect of Barbadin on endocytosis was further confirmed using BRET-microscopy allowing to image receptor localization at the plasma membrane (Fig. 4i and Supplementary Fig. 5i), and in early endosomes (Supplementary Fig. 5j), coherent with the spectrometric measurements (Fig. 4b–d,f–h). Figure 4 Barbadin inhibits GPCRs endocytosis. […] (b–d,f–h) V2R, β2AR or AT1R interaction with either rGFP-CAAX (b–d, respectively) or rGFP-FYVE (f–h, respectively) was assessed by BRET following HEK293T cells pre-incubation with DMSO or Barbadin (100 μM) for 30 min before AVP (100 nM), ISO (10 μM) or AngII (1 μM) stimulation for the indicated times. […] To generate BRET images, the ratio of acceptor photon counts to donor photon counts was calculated for each pixel and expressed as a colour-coded heat map (lowest being black and purple, and highest red and white). […]

β2-adaptin [4] = experiment: cells; parameters: species or system HEK293T; ebBRET receptor-RlucII with rGFP-FYVE, inhibition of agonist-induced receptor accumulation in early endosomes; details: Homo sapiens, HEK-293T, 0.5 h
From the text: Because the interaction between β-arrestins and β2-adaptin is important for initiating receptor internalization, we next sought to determine whether Barbadin could be used as a pharmacological tool, to block the ligand-promoted endocytosis of GPCRs. For this purpose, we used enhanced bystander BRET (ebBRET) trafficking sensors allowing to monitor both receptor disappearance from the plasma membrane (rGFP-CAAX sensor, Fig. 4a) and their accumulation in early endosomes (rGFP-FYVE, Fig. 4e) in spectrometric and microscopy-based assays. […] The effect of Barbadin on endocytosis was further confirmed using BRET-microscopy allowing to image receptor localization at the plasma membrane (Fig. 4i and Supplementary Fig. 5i), and in early endosomes (Supplementary Fig. 5j), coherent with the spectrometric measurements (Fig. 4b–d,f–h).  Figure 4 Barbadin inhibits GPCRs endocytosis. (a,e) Schematic representation of the ebBRET-based assay used to follow agonist-induced receptor loss from the cell surface by monitoring the interaction between receptor-RLucII and rGFP-CAAX (a) or its translocation into endosomes using rGFP-FYVE (e). (b–d,f–h) V2R, β2AR or AT1R interaction with either rGFP-CAAX (b–d, respectively) or rGFP-FYVE (f–h, respectively) was assessed by BRET following HEK293T cells pre-incubation with DMSO or Barbadin (100 μM) for 30 min before AVP (100 nM), ISO (10 μM) or AngII (1 μM) stimulation for the indicated times. Data are the mean±s.e.m. of a least three independent experiments. (i) V2R localization was imaged by BRET. HEK293T cells were transfected with V2R-RlucII and rGFP-CAAX, pretreated with DMSO or Barbadin (100 μM) for 30 min and then stimulated with 100 nM AVP for 30 min. To generate BRET images, the ratio of acceptor photon counts to donor photon counts was calculated for each pixel and expressed as a colour-coded heat map (lowest being black and purple, and highest red and white). Scale bar, 10 μm.

[5] = biological target: T2, β2-adaptin(700–937)-StrepTagII (human, UniProt P63010 700-937); experiment: differential scanning fluorimetry (thermal shift); 0.78 μM purified β2-adaptin (700–937) in PBS with 0.5 mM Triton X-100, 30 min with 20 μM β-arrestin1 C-terminal peptide; CPM dye; 30 °C to 90 °C at 6 °C per min; details: both partners purified
T2 construct: human β2-adaptin, residues 700 to 937 (appendage domain); printed molecular weight 26.88 kDa; Cloned into pRSETA between BamHI and Acc65I; also called β2-appendage; β-appendage; source: E. coli BL21 pLysS, purified (Strep-Tactin Sepharose, sepharose column, gel filtration)
T2 sequence (looked up): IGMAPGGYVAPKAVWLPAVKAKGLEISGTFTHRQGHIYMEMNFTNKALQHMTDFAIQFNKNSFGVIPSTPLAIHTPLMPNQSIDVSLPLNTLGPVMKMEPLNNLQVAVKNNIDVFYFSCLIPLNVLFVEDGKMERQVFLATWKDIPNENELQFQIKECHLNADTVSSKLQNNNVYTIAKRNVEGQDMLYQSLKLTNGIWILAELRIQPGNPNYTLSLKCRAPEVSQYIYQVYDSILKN

T1 sequence (P63010 2-937): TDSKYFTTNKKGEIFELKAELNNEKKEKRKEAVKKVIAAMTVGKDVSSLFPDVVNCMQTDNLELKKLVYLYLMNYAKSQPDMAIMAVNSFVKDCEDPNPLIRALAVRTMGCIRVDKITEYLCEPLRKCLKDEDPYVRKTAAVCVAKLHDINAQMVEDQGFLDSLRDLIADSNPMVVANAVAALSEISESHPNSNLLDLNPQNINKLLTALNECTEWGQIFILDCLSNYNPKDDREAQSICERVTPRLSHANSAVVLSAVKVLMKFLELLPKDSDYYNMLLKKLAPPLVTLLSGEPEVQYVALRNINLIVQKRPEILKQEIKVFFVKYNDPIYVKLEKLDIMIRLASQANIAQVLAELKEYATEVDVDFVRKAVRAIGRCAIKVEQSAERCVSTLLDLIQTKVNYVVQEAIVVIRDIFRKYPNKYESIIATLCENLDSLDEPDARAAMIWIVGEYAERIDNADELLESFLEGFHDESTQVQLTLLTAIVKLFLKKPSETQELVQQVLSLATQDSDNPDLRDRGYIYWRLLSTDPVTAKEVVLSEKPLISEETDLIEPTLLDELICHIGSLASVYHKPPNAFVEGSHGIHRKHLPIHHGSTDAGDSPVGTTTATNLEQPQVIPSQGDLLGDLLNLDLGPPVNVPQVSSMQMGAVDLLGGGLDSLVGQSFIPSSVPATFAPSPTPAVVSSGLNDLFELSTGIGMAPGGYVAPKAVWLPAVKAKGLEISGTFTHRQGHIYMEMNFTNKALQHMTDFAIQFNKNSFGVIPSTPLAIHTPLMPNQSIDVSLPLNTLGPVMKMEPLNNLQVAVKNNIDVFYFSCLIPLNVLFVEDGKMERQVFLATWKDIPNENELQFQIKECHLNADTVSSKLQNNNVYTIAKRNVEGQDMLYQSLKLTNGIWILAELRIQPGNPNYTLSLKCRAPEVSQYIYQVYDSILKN
T1 sequence (P49407 whole entry partner, the tested form may be a part): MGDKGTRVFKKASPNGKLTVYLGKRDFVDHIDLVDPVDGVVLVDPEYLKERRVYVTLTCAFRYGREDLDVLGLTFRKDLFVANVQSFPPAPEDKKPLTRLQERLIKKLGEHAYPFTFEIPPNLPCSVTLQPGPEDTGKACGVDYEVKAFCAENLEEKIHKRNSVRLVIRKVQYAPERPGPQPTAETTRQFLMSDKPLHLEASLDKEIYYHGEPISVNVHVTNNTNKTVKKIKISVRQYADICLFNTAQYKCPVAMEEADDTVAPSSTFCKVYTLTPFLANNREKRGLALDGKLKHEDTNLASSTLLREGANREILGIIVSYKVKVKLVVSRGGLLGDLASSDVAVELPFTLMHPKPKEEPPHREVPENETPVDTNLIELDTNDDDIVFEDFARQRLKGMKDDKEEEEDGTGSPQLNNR

IC50 (β2-adaptin [1]): 19.1 µM
IC50 (β2-adaptin [2]): 14.6 ± 5 µM
IC50 (β2-adaptin [3]): 18.2 ± 7.7 µM
IC50 (β2-adaptin [4]; AT1R endocytosis, AngII 1 uM 30 min, read-out: IC50 endosome localization AT1R): 40.6 ± 24.4 µM
IC50 (β2-adaptin [4]; V2R endocytosis, AVP 100 nM 30 min, read-out: IC50 endosome localization V2R): 31.5 ± 14.4 µM
IC50 (β2-adaptin [4]; β2AR endocytosis, ISO 10 uM 30 min, read-out: IC50 endosome localization β2AR): 18.4 ± 9.8 µM
Molecule: Nn1cnc2scc(-c3ccc(Cc4ccccc4)cc3)c2c1=O [#42, 3-amino-5-(4-benzylphenyl)-3H,4H-thieno[2,3-d]pyrimidin-4-one]

IC50 (β2-adaptin [2]): 54.3 ± 45 µM
Molecule: Nn1cnc2scc(-c3ccc(-c4ccccc4)cc3)c2c1=O [Analogue-C]

IC50 (β2-adaptin [2]): 15.4 ± 6.4 µM
Molecule: Cc1nc2scc(-c3ccc(C(C)(C)C)cc3)c2c(=O)n1N [Cpd #43]

binding result [5]: binds
B1: β-arrestin1 C-terminal peptide (peptide)
peptide: DDDIVFEDFARQRLKGMKDD
notes: C-terminal stretch of β-arrestin1; holds Phe-388, Phe-391 and Arg-395; also called β-arrestin1 C-tail peptide; 20-mer β-arrestin C-tail peptide; source: synthetic peptide (Genscript)
